We go through 13 compounds from patent publication US20140051576A1, “ACTIVE COMPOUND COMBINATIONS COMPRISING A (THIO)CARBOXAMIDE DERIVATIVE AND AN INSECTICIDAL OR ACARICIDAL OR NEMATICIDAL ACTIVE COMPOUND” (priority 2011, published 2014).

Read-outs that look alike come from different tables or passages of the source.

As usually defined, the mortality is the percentage killed.

One data set relates to Myzus persicae. Nature of the data set: Myzus persicae - Test (MYZUPE spray application). Format: in vivo. From the text:
Myzus persicae—Test; (MYZUPE Spray Application)
Chinese cabbage (Brassica pekinesis) leaf—disks infected with all instars of the green peach aphid (Myzus persicae), are sprayed with a preparation of the active ingredient at the desired concentration.
100% means that all aphids have been killed; 0% means that none of the aphids have been killed.

For the next data set, the system named is Phaedon cochleariae. Put plainly: Phaedon cochleariae Larvae - Test (PHAECO spray application). It counts as in vivo. From the text: Phaedon cochleariae—Test; (PHAECO Spray Application)
Solvent: 78 parts by weight of acetone • 1.5 parts by weight of N,N-dimethylformamide Emulsifier: 0.5 parts by weight of alkylarylpolyglycolether
Once dry, the leaf discs are infested with mustard beetle larvae (Phaedon cochleariae).

A further data set deals with Spodoptera frugiperda. Nature of the data set: whole plant or invertebrate. As for the experimental part: Spodoptera frugiperda—Test (SPODFR Spray Application)
Solvent: 78.0 parts by weight acetone • 1.5 parts by weight N,N-dimethylformamide Emulsifier: 0.5 parts by weight alkylarylpolyglycolether
Maize (Zea mais) leaf sections are sprayed with a preparation of the active ingredient of the desired concentration. Once dry, the leaf sections are infested with larvae of the fall armyworm (Spodoptera frugiperda).
After the specified period of time, the mortality in % is determined. 100% means that all caterpillars have been killed and 0% means that none of the caterpillars have been killed.

The next data set deals with Tetranychus urticae. Nature of the data set: Tetranychus urticae - Test; OP-resistant (TETRUR spray application). It counts as in vivo. The settings on record: for Mortality in % after 6 days obs.: single active ingredient. The source says:
Tetranychus urticae—Test; OP-Resistant (TETRUR Spray Application)
French beans (Phaseolus vulgaris) which are heavily infested with all stages of the two spotted spidermite (Tetranychus urticae), are sprayed with a preparation of the active ingredient at the desired concentration.

[1] abbreviates: Myzus persicae, 24 h, read-out: Mortality in % after 1 day obs.
The mark [2] stands for this setting: Myzus persicae, 144 h, read-out: Mortality in % after 6 days obs.
Where [3] appears, read: Phaedon cochleariae, 48 h, read-out: Mortality in % after 2 days obs.
Setting [4] is: Phaedon cochleariae, 144 h, read-out: Mortality in % after 6 days obs.
The mark [5] stands for this setting: Spodoptera frugiperda, 48 h, read-out: Mortality in % after 2 days obs.
Where [6] appears, read: Spodoptera frugiperda, 144 h, read-out: Mortality in % after 6 days obs.
The mark [7] stands for this setting: Tetranychus urticae, 48 h, read-out: Mortality in % after 2 days obs.
Where [8] appears, read: Tetranychus urticae, 144 h, read-out: Mortality in % after 6 days obs.

`Cc1ccc(C(C)C)c(CN(C(=O)c2c(C(F)F)nn(C)c2F)C2CC2)c1` [A-12, N-cyclopropyl-3-(difluoromethyl)-5-fluoro-N-(2-isopropyl-5-methylbenzyl)-1-methyl-1H-pyrazole-4-carboxamide]: the mortality at 100 g/ha in the data set with Myzus persicae (setting [1]), in the data set on Myzus persicae (setting [2]), with Phaedon cochleariae (setting [3]), with Phaedon cochleariae (setting [4]), with Spodoptera frugiperda (setting [5]) and in the data set on Spodoptera frugiperda (setting [6]) was 0% in each case. In addition, the mortality at 100 g/ha in the data set with Tetranychus urticae (setting [7]) and in the data set on Tetranychus urticae (setting [8]) was 0% throughout. Also, the mortality at 200 g/ha in the data set on Myzus persicae (setting [1]), in the data set on Myzus persicae (setting [2]), with Phaedon cochleariae (setting [4]) and in the data set on Spodoptera frugiperda (setting [5]) was 0% throughout. Also, in the data set with Tetranychus urticae (setting [7]), the mortality at 150 g/ha is 0%.

Turning to `Cn1nc(C(F)F)c(C(=O)N(Cc2cc(Cl)ccc2C(F)(F)F)C2CC2)c1F` [A-15, N-[5-chloro-2-(trifluoromethyl)benzyl]-N-cyclopropyl-3-(difluoromethyl)-5-fluoro-1-methyl-1H-pyrazole-4-carboxamide], the mortality at 500 g/ha in the data set on Myzus persicae (setting [1]), in the data set on Myzus persicae (setting [2]), in the data set on Phaedon cochleariae (setting [3]), in the data set with Phaedon cochleariae (setting [4]), in the data set with Spodoptera frugiperda (setting [6]) and in the data set on Tetranychus urticae (setting [7]) was 0% in each case. For the same compound, in the data set with Tetranychus urticae (setting [8]), the mortality at 500 g/ha turned out to be 0%.

`Cn1nc(C(F)F)c(C(=O)N(Cc2c(Cl)cccc2C(F)(F)F)C2CC2)c1F` [A-17, N-[2-chloro-6-(trifluoromethyl)benzyl]-N-cyclopropyl-3-(difluoromethyl)-5-fluoro-1-methyl-1H-pyrazole-4-carboxamide]: the mortality at 100 g/ha in the data set on Myzus persicae (setting [1]), in the data set on Myzus persicae (setting [2]), in the data set on Phaedon cochleariae (setting [3]), with Phaedon cochleariae (setting [4]), in the data set with Spodoptera frugiperda (setting [5]) and with Spodoptera frugiperda (setting [6]) was 0% each time. For the same compound, the mortality at 100 g/ha in the data set on Tetranychus urticae (setting [7]) and in the data set on Tetranychus urticae (setting [8]) was 0% in each case.

Consider `Cn1nc(C(F)F)c(C(=O)N(Cc2c(C(F)(F)F)ccc(Cl)c2F)C2CC2)c1F` [A-18, N-[3-chloro-2-fluoro-6-(trifluoromethyl)benzyl]-N-cyclopropyl-3-(difluoromethyl)-5-fluoro-1-methyl-1H-pyrazole-4-carboxamide], for which the mortality at 500 g/ha in the data set with Myzus persicae (setting [1]), with Myzus persicae (setting [2]), in the data set with Phaedon cochleariae (setting [3]), in the data set on Phaedon cochleariae (setting [4]), in the data set on Spodoptera frugiperda (setting [6]) and in the data set on Tetranychus urticae (setting [7]) was 0% throughout. In the data set on Tetranychus urticae (setting [8]), the mortality at 500 g/ha was determined as 0%.

For `CCOP(=S)(OCC)Oc1nc(Cl)c(Cl)cc1Cl` [B-1B.10, Chlorpyrifos], the mortality at 0.8 g/ha in the data set with Myzus persicae (setting [2]) worked out at 0%. In addition, the mortality at 20 g/ha with Phaedon cochleariae (setting [4]) and with Tetranychus urticae (setting [7]) was 0% throughout. For the same compound, the mortality at 4 g/ha is 67% in the data set with Spodoptera frugiperda (setting [6]) and 0% in the data set with Tetranychus urticae (setting [8]).

Turning to `CC1(C)C(C=C(Cl)Cl)C1C(=O)OC(C#N)c1ccc(F)c(Oc2ccccc2)c1` (stereo not drawn) [B-3A.11, β-Cyfluthrin], the “Mortality in % after 6 days obs.” value came out at 0% in the data set on Myzus persicae (0.16 g/ha); 70% in the data set with Myzus persicae (0.8 g/ha); 50% in the data set on Phaedon cochleariae (0.16 g/ha); 67% in the data set on Phaedon cochleariae (0.8 g/ha); 50% in the data set with Spodoptera frugiperda (0.16 g/ha); 0% in the data set on Tetranychus urticae (4 g/ha). Moreover, the “Mortality in % after 1 day obs.” value with Myzus persicae (0.8 g/ha) was determined as 70%.

As to `CC1(C)[C@H](C(=O)O[C@H](C#N)c2cccc(Oc3ccccc3)c2)[C@@H]1C=C(Br)Br` [B-3A.21, Deltamethrin], the mortality at 0.8 g/ha stood at 80% with Myzus persicae (setting [1]), 33% in the data set on Phaedon cochleariae (setting [4]) and 33% in the data set with Spodoptera frugiperda (setting [6]). Further, the mortality at 0.16 g/ha in the data set on Myzus persicae (setting [2]) is 70%; in the data set on Phaedon cochleariae (setting [4]), 0%; in the data set with Spodoptera frugiperda (setting [5]), 0%. The mortality at 0.032 g/ha in the data set on Spodoptera frugiperda (setting [6]) was 0%. Also, the mortality at 4 g/ha in the data set on Tetranychus urticae (setting [8]) turned out to be 20%.

`CN/C(=N\[N+](=O)[O-])NCc1cnc(Cl)s1` [B-4A.2, Clothianidin]: the mortality at 4 g/ha with Myzus persicae (setting [1]), in the data set on Phaedon cochleariae (setting [4]) and in the data set with Tetranychus urticae (setting [8]) was 0% throughout. The mortality at 20 g/ha in the data set on Phaedon cochleariae (setting [3]) amounted to 83%; in the data set with Spodoptera frugiperda (setting [6]), 0%; in the data set on Tetranychus urticae (setting [7]) it was 0%; in the data set with Tetranychus urticae (setting [8]) it was 0%.

As for `CNC(=O)c1cc(C#N)cc(C)c1NC(=O)c1cc(Br)nn1-c1ncccc1Cl` [B-26.2, Cyantraniliprole (Cyazypyr)], the “Mortality in % after 1 day obs.” value with Myzus persicae (0.8 g/ha) was 0%. Further, the “Mortality in % after 6 days obs.” value in the data set on Myzus persicae (0.8 g/ha) came to 70%; in the data set on Phaedon cochleariae (0.8 g/ha), 67%; in the data set on Spodoptera frugiperda (0.16 g/ha) it was 0%; with Tetranychus urticae (20 g/ha), 0%. In the data set with Phaedon cochleariae (0.8 g/ha), the “Mortality in % after 2 days obs.” value was found to be 0%.

Consider `O=C1C=C(N(Cc2ccc(Cl)nc2)CC(F)F)CO1` [B-27.16, 4-{[(6-chloropyridin-3-yl)methyl](2,2-difluoroethyl)-amino}furan-2(5H)-one], for which, in the data set with Myzus persicae (setting [1]), the mortality at 4 g/ha was found to be 0%. Further, the mortality at 100 g/ha with Myzus persicae (setting [1]) came to 80%; in the data set with Phaedon cochleariae (setting [3]), 50%; with Tetranychus urticae (setting [7]), 0%; in the data set on Tetranychus urticae (setting [8]), 0%. The mortality at 20 g/ha in the data set on Phaedon cochleariae (setting [4]) and in the data set with Spodoptera frugiperda (setting [6]) was 0% each time.

As for Acetamiprid [B-4A.1], the “Mortality in % after 1 day obs.” value with Myzus persicae (0.8 g/ha) was found to be 70%. In addition, the “Mortality in % after 2 days obs.” value is reported as 50% in the data set on Phaedon cochleariae (20 g/ha) and 0% with Tetranychus urticae (20 g/ha). In addition, the “Mortality in % after 6 days obs.” value with Phaedon cochleariae (100 g/ha) and in the data set with Spodoptera frugiperda (20 g/ha) was 0% throughout.

Turning to Fipronil [B-2B.2], the “Mortality in % after 6 days obs.” value came to 0% in the data set with Myzus persicae (20 g/ha), 50% with Phaedon cochleariae (0.16 g/ha) and 0% in the data set with Tetranychus urticae (100 g/ha). For the same compound, the “Mortality in % after 2 days obs.” value in the data set with Phaedon cochleariae (0.8 g/ha) was 33%; in the data set with Phaedon cochleariae (4 g/ha) it was 67%; in the data set on Spodoptera frugiperda (100 g/ha), 67%.

In the case of Transfluthrin [B-3A.46], the entries for the “Mortality in % after 1 day obs.” value with Myzus persicae (20 g/ha) and in the data set on Myzus persicae (100 g/ha) were 0% and 80%, respectively. In addition, the “Mortality in % after 6 days obs.” value is recorded as 0% in the data set with Myzus persicae (20 g/ha); 0% with Phaedon cochleariae (4 g/ha); 0% with Phaedon cochleariae (20 g/ha); 33% in the data set with Spodoptera frugiperda (0.8 g/ha); 33% in the data set on Spodoptera frugiperda (4 g/ha); 50% in the data set with Spodoptera frugiperda (20 g/ha). The “Mortality in % after 6 days obs.” value with Tetranychus urticae (100 g/ha) stood at 0%. The “Mortality in % after 2 days obs.” value in the data set on Phaedon cochleariae (100 g/ha) is 67%.
